Measurements taken from patent US9617230B2, “Creatine prodrugs, compositions and methods of use thereof” (Farmington Pharma Development, priority 2014, dated 2017).
One block for each molecule: values may come before it.

What was measured:
[1] = animals fed a diet containing up to 1% cyclocreatine; cited from earlier work
[2] = athletes and body builders, 2-3 gm/day; cited from earlier work
[3] = Stability in mouse plasma incubations; type: in vitro ADME
Description: (§1) To determine prodrug stability in mouse, rat, human or plasma from other species, prodrugs (10 μM) or positive controls (10 μM, propantheline or procaine) are incubated in undiluted plasma. Duplicate samples of prodrugs and controls are prepared and analyzed. Stock solutions of prodrugs are prepared in DMSO (10 mM) and diluted to 0.1 mM in pH 7.4 phosphate buffer to prepare spiking solutions. The prodrug spiking solutions are aliquoted (10 μL) into 96-well plates. Pre-warmed (37° C.) plasma (90 μL) is added to the wells designated for 5, 15, 30, 45 and 60 min time points; for t=0 min the quench solution (400 μL acetonitrile) is added directly to the prodrug containing well followed by 90 μL of pre-warmed plasma. At 5, 15, 30, 45 and 60 min 400 μL aliquots of acetonitrile are added to the wells to stop the reaction. After quenching, the plates are shaken for 10 min (600 rpm) and then centrifuged at 5500 g for 15 min. Aliquots (50 μL) are transferred to the analysis plate and diluted with 100 μL ultrapure water (Millipore) for LC-MSMS quantitation of prodrug concentrations, and in some cases creatine and/or creatinine. Chromatography columns (e.g., Atlantis HILIC Silica, Gemini C-18, Ultimate XB-C18) are selected based upon the lipophilicity and polarity of each prodrug. LC-MSMS platforms (e.g., Sciex API4000, Sciex API6500) are also selected based on the requirements of each prodrug. The stabilities of the compounds of the present disclosure (prodrugs) in mouse plasma incubations is shown in Table 4 and stability in human plasma incubations is shown in Table 5.

[4] = Metabolic stability in mouse liver microsomal incubations; type: in vitro ADME
Description: (§2) Incubations are conducted at 37° C. in the presence or absence of NADPH regenerating system to indicate whether metabolism proceeds via an NADPH requiring enzyme (i.e. P450s, FMOs, NADPH-P450 reductase or other oxidase enzymes). Duplicate samples of prodrugs and controls are prepared and analyzed. Stock solutions of prodrugs are prepared in DMSO (10 mM) and diluted to 0.05 mM in a mixture of 25% MeOH/pH 7.4 phosphate buffer to prepare spiking solutions. The prodrug spiking solutions are aliquoted (10 μL) into 96-well plates. Pre-warmed (37° C.) microsome solution (80 μL) is added to the wells designated for 5, 15, 30, 45 and 60 min time points and incubated for 10 min before initiating the reaction with 10 μL of NADPH regenerating solution. For t=0 min the quench solution (300 μL acetonitrile) is added directly to the prodrug containing well followed by the microsome solution and NADPH solution. Incubations of the prodrugs in heat-inactivated fractions or buffer are conducted to differentiate enzymatic from non-enzymatic degradation. At specified time points (e.g., 0, 5, 10, 20, 30 and 60 min), samples are taken and terminated with an equal volume of cold acetonitrile containing a suitable internal standard (e.g., labetalol, tolbutamide). After quenching, the plates are centrifuged at 4000 g for 20 min. Aliquots (100 μL) are transferred to the analysis plate and diluted with 400 μL ultrapure water (Millipore) for LC-MSMS quantitation of prodrug concentrations, and in some cases creatine and/or creatinine. Chromatography columns (e.g., ACE 5 Phenyl, Phenomenex C18 Synergi Hydro-RP, Atlantis HILIC Silica) are selected based upon the lipophilicity and polarity of each prodrug. LC-MSMS platforms (e.g., Sciex API4000, Sciex API6500) are also selected based on the requirements of each prodrug. The metabolic stability of the compounds of the present disclosure of in mouse liver microsomal incubations is shown in Table 6 and human liver microsomal incubations is shown in Table 7.

[5] = Stability in human plasma incubations; type: in vitro ADME
Description: as §1

[6] = Stability of prodrugs in simulated intestinal fluid (SIF) with and without pancreatin; type: in vitro ADME; conditions: prodrug 10 μM, 37° C.
Description: For determination of stability in simulated intestinal fluid (SIF), prodrug (10 μM) is incubated in SIF (0.68% KH2PO4 w/v, 0.86% NaOH v/v, pH 6.8) with and without addition of pancreatin (1% w/v) at 37° C. At selected time points (e.g., 0, 15, 30, 60 and 120 min) 50 μL aliquots are removed and the reactions are terminated by addition of 150 μL of ice-cold acetonitrile. Samples are centrifuged at 4,000×g for 15 min at 4° C., and the supernatants are removed and analyzed for prodrug, creatine and creatinine concentrations by LC-MSMS (Table 3).

[7] = Stability of prodrugs in simulated gastric fluid (SGF) with and without pepsin; type: in vitro ADME; conditions: prodrug 10 μM, 37° C.
Description: For determination of stability in simulated gastric fluid (SGF), prodrug (10 μM) is incubated in SGF (0.2% NaCl w/v, 0.7% HCl v/v, pH1.2) with and without addition of pepsin (3.2 g of purified pepsin per liter with an activity of 800-2500 units per mg of protein) at 37° C. At selected time points (e.g., 0, 15, 30, 60 and 120 min) 50 μL aliquots are removed and neutralized by addition of 50 μL of 0.1M sodium bicarbonate solution, followed by 150 μL of ice-cold acetonitrile. Samples are centrifuged at 4,000×g for 15 min at 4° C., and the supernatants are removed and analyzed for prodrug, creatine and creatinine concentrations by LC-MSMS (Table 2).

[8] = Metabolic stability in human liver microsomal incubations; type: in vitro ADME; conditions: human liver microsomes
Description: as §2

[9] = In vitro release of d3-creatine and d3-creatinine from d3-prodrugs in mouse liver homogenate (MLH) incubations; type: in vitro ADME
Description: For assessment of the ability of prodrugs to release creatine, and to release creatine preferentially to unwanted cyclization to creatinine, d3-labeled (deuterium labeled methyl group) prodrugs are incubated with liver homogenates (e.g., mouse, human) specially prepared to preserve N-reductase activity. The use of d3-labelled prodrugs is essential in order to distinguish prodrug-derived creatine (d3-creatine) from high concentrations of endogenous (non-labeled) creatine. Incubations (37° C.) are performed in 100 mM potassium phosphate buffer, pH 6.0 to optimize N-reductase activity. Prodrugs are tested at final concentrations of 20 μM and 200 μM. Approximately 4-5 mg of homogenate is used for each reaction. Co-factor (NADH) is included at a final concentration of 1 mM. Benzamidoxime (500 μM final concentration) is used as a positive control for N-reductase activity. N-reductase activity is confirmed by conversion of benzamidoxime into benzamidine. Negative controls include incubations without NADH (to assess NADH-independent prodrug cleavage) and incubations without liver homogenate (but with NAPD) to assess non-enzymatic prodrug cleavage under the conditions of the assay. […] Sample supernatants are analyzed by LC-MSMS (HILIC column) for determination of d3-prodrug, d3-creatine and d3-creatinine levels (Table 8).

melting point: 120 to 125 °C
SMILES: [2H]C([2H])([2H])N(CC(=O)OC)c1nc(=O)o[nH]1 [Example 28, Step 3, methyl 2-[(5-oxo-2H-1,2,4-oxadiazol-3-yl)-(trideuteriomethyl)amino]acetate]

SMILES: NC1=NCCN1CC(=O)O [cyclocreatine]
adverse effects [1]: do not exhibit adverse effects

melting point: 150 to 155 °C
SMILES: [2H]C([2H])([2H])N(CC(=O)O)c1nc(=O)o[nH]1 [Example 28, Step 4, 2-[(5-oxo-2H-1,2,4-oxadiazol-3-yl)-(trideuteriomethyl)amino]acetic acid]

SMILES: CN(CC(=O)O)C(=N)N.O [creatine monohydrate]
adverse side effects [2]: without adverse side effects

melting point: 143 to 145 °C
SMILES: [2H]C([2H])([2H])N(CC(=O)OC(C)C)c1nc(=O)o[nH]1 [Example 28, Step 5C, isopropyl 2-[(5-oxo-2H-1,2,4-oxadiazol-3-yl)-(trideuteriomethyl)amino]acetate]

melting point: 150 to 155 °C
SMILES: CN(CC(=O)O)c1noc(=O)[nH]1 [Example 27, 2-[methyl-(5-oxo-4H-1,2,4-oxadiazol-3-yl)amino]acetic acid]

melting point: 98 to 104 °C
SMILES: [2H]C([2H])([2H])N(CCO)c1nc(=O)o[nH]1 [Example 29, 3-[2-hydroxyethyl(trideuteriomethyl)amino]-2H-1,2,4-oxadiazol-5-one]

melting point: 120 to 123 °C
SMILES: CCOC(=O)CN(C)c1noc(=O)[nH]1 [Example 26, ethyl 2-[methyl-(5-oxo-4H-1,2,4-oxadiazol-3-yl)amino]acetate]

melting point: 110 to 115 °C | half-life at 10 μM [3]: > 180 min | % Remaining 5 min ([3]; 10 μM, 5 min): 100% | % Remaining 60 min ([3]; 10 μM, 60 min): 89.0% | % Remaining (No NADPH) 30 min ([4]; mouse liver microsomes, no NADPH, 30 min, 10 μM): 15.6% | % Remaining (w/NADPH) 5 min ([4]; mouse liver microsomes, with NADPH, 5 min, 10 μM): 89.1% | % Remaining (w/NADPH) 30 min ([4]; mouse liver microsomes, with NADPH, 30 min, 10 μM): 26.0% | half-life at 10 μM ([4]; pH 7.4, mouse liver microsomes): 20 min | CLint scaled at 10 μM ([4]; pH 7.4, mouse liver microsomes, read-out: in vivo Clint): 407 mL/min/kg | half-life at 10 μM [5]: 154 min | % Remaining 5 min ([5]; 5 min, 10 μM): 101% | % Remaining 60 min ([5]; 1 h, 10 μM): 75.6% | half-life at 10 μM ([6]; simulated intestinal fluid (SIF) with pancreatin, SIF pH 6.8, title: with pancreatin (1% w/v), read-out: T1/2 (min) (+) pepsin): > 360 min | half-life at 10 μM ([6]; simulated intestinal fluid (SIF) without pancreatin, SIF pH 6.8, title: without pancreatin, read-out: T1/2 (min) (−) pepsin): > 360 min | half-life at 10 μM ([7]; simulated gastric fluid (SGF) with pepsin, SGF pH 1.2 with pepsin, read-out: T1/2 (min) (+) pepsin): > 360 min | half-life at 10 μM ([7]; simulated gastric fluid (SGF) without pepsin, SGF pH 1.2 without pepsin, read-out: T1/2 (min) (−) pepsin): > 360 min | half-life at 10 μM [8]: > 90 min | % Remaining (No NADPH) 30 min ([8]; no NADPH, 30 min, 10 μM): 106% | CLint scaled at 10 μM ([8]; read-out: in vivo Clint): < 21 mL/min/kg | % Remaining (w/NADPH) 5 min ([8]; with NADPH, 5 min, 10 μM): 103.8% | % Remaining (w/NADPH) 30 min ([8]; with NADPH, 30 min, 10 μM): 82.1% | Concentration (μM) at 120 min, Prodrug ([9]; Negative Control (No MLH)): 240 µM | Concentration (μM) at 120 min, Prodrug ([9]; Prodrug + MLH + NADH): 4.70 µM
SMILES: [2H]C([2H])([2H])N(CC(=O)OCCCCCCC)c1nc(=O)o[nH]1 [Compound E, heptyl 2-[(5-oxo-2H-1,2,4-oxadiazol-3-yl)-(trideuteriomethyl)amino]acetate]
